This passage reports IC50 results from patent EP1032559B1 (priority 1997, dated 1999).

The structures appear in SMILES notation. Where a name gives a salt, the structure may show the parent alone.

The target in one test is clonidine: α2-receptor. Put plainly: in vitro clonidine binding: α2-receptor assay. Also noted: species or system Male Wistar rats. Particulars: rat cortical tissue homogenate; 3 nM 3H-clonidine; 20 minutes at 25° C; log-probit analysis; read-out: Inhibition of clonidine binding activity IC50.
The target of the next test is T1, acetylcholinesterase (Rattus norvegicus, UniProt P37136).
T1 construct: corpora striata dissected free, weighted and homogenized in 19 volumes; from tissue; host or cells: rat brain corpora striata, crude homogenate
T1 sequence (P37136 32-614): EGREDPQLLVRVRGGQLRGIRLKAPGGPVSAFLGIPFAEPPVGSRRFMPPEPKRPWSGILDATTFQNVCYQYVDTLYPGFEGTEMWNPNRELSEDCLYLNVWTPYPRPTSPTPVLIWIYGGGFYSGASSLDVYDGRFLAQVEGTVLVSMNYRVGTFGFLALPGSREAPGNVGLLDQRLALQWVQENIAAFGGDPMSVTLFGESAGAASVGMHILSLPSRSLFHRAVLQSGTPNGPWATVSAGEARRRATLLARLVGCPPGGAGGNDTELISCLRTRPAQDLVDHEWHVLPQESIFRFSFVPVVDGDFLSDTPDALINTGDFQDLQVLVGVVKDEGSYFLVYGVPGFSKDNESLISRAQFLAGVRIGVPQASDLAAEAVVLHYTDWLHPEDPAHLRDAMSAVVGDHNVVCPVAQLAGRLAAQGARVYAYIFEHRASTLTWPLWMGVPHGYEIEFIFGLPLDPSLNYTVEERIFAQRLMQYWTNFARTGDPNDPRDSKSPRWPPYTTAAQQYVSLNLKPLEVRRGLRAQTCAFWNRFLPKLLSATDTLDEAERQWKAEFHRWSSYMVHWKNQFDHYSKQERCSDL
Put plainly: biochemical. Also noted: species or system Male Wistar rats.

Protocol for acetylcholinesterase: 0.05M Phosphate Buffer (pH 7.2)
A solution of monobasic sodium phosphate monohydrate (6.85 g) in distilled water (100 ml) is added to a solution of dibasic sodium phosphate heptahydrate (13.4 g) and distilled water (100 ml) until a pH of 7.2 was attained. The solution was diluted 1 to 10 with distilled water.
5,5-Dithiobisnitrobenzoic acid in Buffer
The 0.05M Phosphate Buffer (pH 7.2) was added to 5.5-dithiobisnitrobenzoic acid to a total volume of 100 ml, i.e., a quantity sufficient (gs) to 100 ml.
A 2 millimolar stock solution of the test drug is prepared in a quantity sufficient of either acetic acid or dimethyl sulfoxide to volume with 5,5-dithiobisnitrobenzoic acid in Buffer. […]
Male Wistar rats are decapitated, brains rapidly removed, corpora striata dissected free, weighted and homogenized in 19 volumes (approximately 7 mg protein/ml) of 0.05M Phosphate Buffer (pH 7.2) using a Potter-Elvejhem homogenizer. […] Enzyme activity is measured with a Beckman DU-50 spectrophotometer with the following software and instrument settings: • 1. […]
Blank values are determined for each run to control for non-enzymatic hydrolysis of substrate and these values are automatically subtracted by the Kindata program available on kinetics soft-pac module. This program also calculates the rate of absorbance change for each cuvette. […]
IC50 values are calculated from log-probit analysis

For `C#CCOc1cc(CN2CCN(c3ccccn3)CC2)ccc1OC` [4-Methoxy-3-(propargyloxy)-1-[[4-(pyridin-2-yl)piperazin-1-yl]methyl] benzene hydrochloride monohydrate], the values for the IC50 on clonidine: α2-receptor and against acetylcholinesterase were 34.6 nM and 26900 nM, respectively. Regarding `C#CCOc1cc(CN2CCCC2)ccc1OC(=O)NC` [reference compound], the IC50 (in general, the point on the concentration scale where inhibition reaches its midpoint) on acetylcholinesterase was 3.6 nM.
